Results taken from US8586747B2, “3,3-dimethyl tetrahydroquinoline derivatives” (Hoffmann-La Roche Inc., priority 2010, dated 2013).

The molecules below were run on AMP-activated protein kinase (AMPK) (assay: ADP Quest assay for AMPK activators). Conditions: fold of AMPK activation to phosphorylate SAMS peptide without and with an activator at the concentration of 30 µM.
Type: biochemical
Set-up: key: fold AMPK activation with vs without activator at 30 µM
Protocol: ADP Quest™ Assay for AMPK Activators
This method evaluates AMP-activated protein kinase (AMPK) activity through detecting the accumulation of ADP product using an ADP Quest kit and determining the E30 values of the small molecular AMPK activators. ADP Quest kit (DiscoveRx, Fremont, Calif.) is stored at −20° C. before use. Before an experiment, thaw the kit (include assay buffer, ADP standard solution, reagent A and reagent B) and equilibrate to room temperature. Dispense the ADP Quest reagents into single-use aliquots and store at −20° C. The compound concentrations typically range from 0 µM to 100 µM by 2-fold dilution. AMP concentrations range from […] to 1 mM as the reference control. In an assay, thaw and equilibrate the assay buffer, reagent A and reagent B to room temperature for 30 minutes prior to use. Mix ATP, SAMS peptide substrate and compound, and place them into the 384-well assay plate. Add reagent A and B based on the assay kit protocol. Incubate the assay plate at room temperature for 30 minutes after addition the mixture followed by the addition of AMPK protein (Invitrogen, CA) to initiate the AMPK phosphorylation reaction. At the same time, reactions with AMPK activator AMP in the absence of enzyme is included as blank control. The reaction fluorescence signal is monitored and recorded on Envision in kinetic mode with the excitation wavelength of 530 nm and emission wavelength of 590 nm. The E30 value, defined as the fold of AMPK activation to phosphorylate SAMS peptide without and with an activator at the concentration of 30 µM, is calculated and analyzed using Prism 5.0.
In the case of `CC1CN(c2cccc(C3Nc4ccc(C(=O)NS(=O)(=O)C5CC5)cc4CC3(C)C)c2)CC(C)O1` (stereo not shown) [Example 105, Cyclopropanesulfonic acid {2-[3-(2,6-dimethyl-morpholin-4-yl)-phenyl]-3,3-dimethyl-1,2,3,4-tetrahydro-quinoline-6-carbonyl}-amide], the E30 is reported as 1.35. `CC1(C)Cc2cc(C(=O)NS(C)(=O)=O)ccc2NC1c1cccc(N2CCOCC2)c1` (stereo not shown) [Example 8, N-[3,3-dimethyl-2-(3-morpholin-4-yl-phenyl)-1,2,3,4-tetrahydro-quinoline-6-carbonyl]-methanesulfonamide] was tested, and the E30 was 1.29. In the case of `CC1(C)Cc2cc(C(=O)NS(=O)(=O)C3CC3)ccc2NC1c1cc(F)cc(N2CCCC2)c1` (stereo not shown) [Example 62, Cyclopropanesulfonic acid [2-(3-fluoro-5-pyrrolidin-1-yl-phenyl)-3,3-dimethyl-1,2,3,4-tetrahydro-quinoline-6-carbonyl]-amide], the E30 is reported as 1.61. `CC1(C)Cc2cc(C(=O)O)ccc2NC1c1cccc(NC(=O)c2cccc(F)c2)c1` (stereo not shown) [Example 6, 2-[3-(3-fluoro-benzoylamino)-phenyl]-3,3-dimethyl-1,2,3,4-tetrahydro-quinoline-6-carboxylic acid] was tested, and the E30 was 1.31. For `CC(C)C(=O)Nc1ccc(C2Nc3ccc(C(=O)O)cc3CC2(C)C)cc1` (stereo not shown) [Example 178, 2-(4-Isobutyramidophenyl)-3,3-dimethyl-1,2,3,4-tetrahydroquinoline-6-carboxylic acid], the E30 was 1.36. `CC1(C)Cc2cc(C(=O)NS(=O)(=O)C3CC3)ccc2NC1c1cccc(N2C(=O)OC[C@@H]2Cc2ccccc2)c1` (stereo partly drawn) [Example 132, Cyclopropanesulfonic acid {2-[3-((S)-4-benzyl-2-oxo-oxazolidin-3-yl)-phenyl]-3,3-dimethyl-1,2,3,4-tetrahydro-quinoline-6-carbonyl}-amide] showed an E30 of 1.23. `Cc1ccccc1N1CCN(c2cccc(C3Nc4c(cc(Cl)cc4C(=O)O)CC3(C)C)c2)CC1` (stereo not shown) [Example 82, 6-Chloro-3,3-dimethyl-2-[3-(4-o-tolyl-piperazin-1-yl)-phenyl]-1,2,3,4-tetrahydro-quinoline-8-carboxylic acid] gave an E30 of 1.5. Molecule `CC1(C)Cc2cc(C(=O)O)ccc2NC1c1ccccc1NC1(C(=O)O)CC1` (stereo not shown) [Example 164, 2-[2-(1-Carboxy-cyclopropylamino)-phenyl]-3,3-dimethyl-1,2,3,4-tetrahydro-quinoline-6-carboxylic acid] has an E30 of 1.78. `CC1(C)Cc2c(cc(Cl)cc2C(=O)NS(C)(=O)=O)NC1c1cccc(N2CCOCC2)c1` (stereo not shown) [Example 149, N-[7-Chloro-3,3-dimethyl-2-(3-morpholin-4-yl-phenyl)-1,2,3,4-tetrahydro-quinoline-5-carbonyl]-methanesulfonamide] gave an E30 of 1.26. Work on `CC1(C)Cc2cc(C(=O)O)ccc2NC1c1ccccc1NC(=O)C1CCC1` (stereo not shown) [Example 216, 2-(2-(Cyclobutanecarboxamido)phenyl)-3,3-dimethyl-1,2,3,4-tetrahydroquinoline-6-carboxylic acid] yielded an E30 of 1.36. `CC1(C)Cc2cc(C(=O)NS(=O)(=O)C3CC3)ccc2NC1c1cccc(N2CCNCC2)c1` (stereo not shown) [Example 97, Cyclopropanesulfonic acid [3,3-dimethyl-2-(3-piperazin-1-yl-phenyl)-1,2,3,4-tetrahydro-quinoline-6-carbonyl]-amide] was tested, and the E30 was 1.46. `CN1CCN(c2cccc(C3Nc4ccc(C(=O)O)cc4CC3(C)C)c2)CC1` (stereo not shown) [Example 99, 3,3-Dimethyl-2-[3-(4-methyl-piperazin-1-yl)-phenyl]-1,2,3,4-tetrahydro-quinoline-6-carboxylic acid] was tested, and the E30 was 1.42. Molecule `CC1(C)Cc2cc(C(=O)O)ccc2NC1c1ccc(F)c(NC(=O)C2CC2)c1` (stereo not shown) [Example 189, 2-(3-(Cyclopropanecarboxamido)-4-fluorophenyl)-3,3-dimethyl-1,2,3,4-tetrahydroquinoline-6-carboxylic acid] has an E30 of 1.31. For `CC1(C)Cc2cc(C(=O)O)ccc2NC1c1cccc(C(=O)N2CCCCC2)c1` (stereo not shown) [Example 191, 3,3-Dimethyl-2-(3-(piperidine-1-carbonyl)phenyl)-1,2,3,4-tetrahydroquinoline-6-carboxylic acid], the E30 was 1.27. Work on `CC1(C)Cc2c(ccc(F)c2C(=O)NS(=O)(=O)C2CC2)NC1c1cccc(N2CCOCC2)c1` (stereo not shown) [Example 117, Cyclopropanesulfonic acid [6-fluoro-3,3-dimethyl-2-(3-morpholin-4-yl-phenyl)-1,2,3,4-tetrahydro-quinoline-5-carbonyl]-amide] yielded an E30 of 1.7. `CNC(=O)c1cccc(C2Nc3ccc(C(=O)O)cc3CC2(C)C)c1` (stereo not shown) [Example 187, 3,3-Dimethyl-2-(3-(methylcarbamoyl)phenyl)-1,2,3,4-tetrahydroquinoline-6-carboxylic acid] was tested, and the E30 was 1.38. `Cc1ccc(F)cc1C1Nc2ccc(C(=O)NS(=O)(=O)C3CC3)cc2CC1(C)C` (stereo not shown) [Example 60, Cyclopropanesulfonic acid [2-(5-fluoro-2-methyl-phenyl)-3,3-dimethyl-1,2,3,4-tetrahydro-quinoline-6-carbonyl]-amide] showed an E30 of 1.2. `CC1(C)Cc2cc(C(=O)O)ccc2NC1c1cccc(N2CCN(c3ccccc3)C2=O)c1` (stereo not shown) [Example 26, 3,3-Dimethyl-2-[3-(2-oxo-3-phenyl-imidazolidin-1-yl)-phenyl]-1,2,3,4-tetrahydro-quinoline-6-carboxylic acid] showed an E30 of 1.27. For `CC1(C)Cc2cc(C(=O)O)ccc2NC1c1ccccc1NC(=O)c1ccccn1` (stereo not shown) [Example 232, 3,3-Dimethyl-2-(2-(picolinamido)phenyl)-1,2,3,4-tetrahydroquinoline-6-carboxylic acid], the E30 was 1.28. For `CC(C)S(=O)(=O)NC(=O)c1ccc2c(c1)CC(C)(C)C(c1cccc(N3CCOCC3)c1)N2` (stereo not shown) [Example 10, Propane-2-sulfonic acid [3,3-dimethyl-2-(3-morpholin-4-yl-phenyl)-1,2,3,4-tetrahydro-quinoline-6-carbonyl]-amide], the E30 was 1.27. In the case of `CC1(C)Cc2cc(C(=O)O)ccc2NC1c1cccc(NC(=O)N2CCCCC2)c1` (stereo not shown) [Example 22, 3,3-Dimethyl-2-{3-[(piperidine-1-carbonyl)-amino]-phenyl}-1,2,3,4-tetrahydro-quinoline-6-carboxylic acid], the E30 is reported as 1.39. Molecule `COC(=O)c1cc(Cl)cc2c1NC(c1cccc(NC(C)(C)C(=O)O)c1)C(C)(C)C2` (stereo not shown) [Example 78, 2-[3-(1-Carboxy-1-methyl-ethylamino)-phenyl]-6-chloro-3,3-dimethyl-1,2,3,4-tetrahydro-quinoline-8-carboxylic acid methyl ester] has an E30 of 1.79. In the case of `CC1(C)Cc2cc(C(=O)O)ccc2NC1c1cc(N2CCOCC2)ccc1F` (stereo not shown) [Example 53, 2-(2-Fluoro-5-morpholin-4-yl-phenyl)-3,3-dimethyl-1,2,3,4-tetrahydro-quinoline-6-carboxylic acid], the E30 is reported as 1.33. Work on `CC1(C)Cc2cc(C(=O)O)ccc2NC1c1ccc(N2CCOCC2)cc1` (stereo not shown) [Example 72, 3,3-Dimethyl-2-(4-morpholin-4-yl-phenyl)-1,2,3,4-tetrahydro-quinoline-6-carboxylic acid] yielded an E30 of 1.21. With `CC1(C)Cc2cc(C(=O)NS(C)(=O)=O)cc(Cl)c2NC1c1cccc(N2CCOCC2)c1` (stereo not shown) [Example 115, N-[8-Chloro-3,3-dimethyl-2-(3-morpholin-4-yl-phenyl)-1,2,3,4-tetrahydro-quinoline-6-carbonyl]-methanesulfonamide] the E30 was 1.2. In the case of `CC(C)Oc1ccc(-c2cccc(C3Nc4ccc(C(=O)NS(C)(=O)=O)cc4CC3(C)C)c2)cc1` (stereo not shown) [Example 85, N-[2-(4′-Isopropoxy-biphenyl-3-yl)-3,3-dimethyl-1,2,3,4-tetrahydro-quinoline-6-carbonyl]-methanesulfonamide], the E30 is reported as 1.29. `CC1(C)Cc2cc(C(=O)O)ccc2NC1c1cccc(N2C(=O)OCC2(C)C)c1` (stereo not shown) [Example 34, 2-[3-(4,4-Dimethyl-2-oxo-oxazolidine-3-yl)-phenyl]-3,3-dimethyl-1,2,3,4-tetrahydro-quinoline-6-carboxylic acid] showed an E30 of 1.15. Molecule `CC(C)N1CCN(c2cc(F)cc(C3Nc4ccc(C(=O)NS(C)(=O)=O)cc4CC3(C)C)c2)CC1` (stereo not shown) [Example 75, N-{2-[3-Fluoro-5-(4-isopropyl-piperazin-1-yl)-phenyl]-3,3-dimethyl-1,2,3,4-tetrahydro-quinoline-6-carbonyl}-methanesulfonamide] has an E30 of 1.19. With `CC(C)(Nc1cccc(C2Nc3ccc(C(=O)NS(C)(=O)=O)cc3CC2(C)C)c1)C(=O)O` (stereo not shown) [Example 28, 2-[3-(6-Methanesulfonylaminocarbonyl-3,3-dimethyl-1,2,3,4-tetrahydro-quinolin-2-yl)-phenylamino]-2-methyl-propionic acid] the E30 was 2.5. For `CN1CCC(NS(=O)(=O)c2cccc(C3Nc4ccc(C(=O)O)cc4CC3(C)C)c2)C1` (stereo not shown) [Example 229, 3,3-Dimethyl-2-(3-(N-(1-methylpyrrolidin-3-yl)sulfamoyl)phenyl)-1,2,3,4-tetrahydroquinoline-6-carboxylic acid], the E30 was 1.33. In the case of `CC1(C)Cc2cc(C(=O)O)ccc2NC1c1cc(F)cc(-c2ccc(C#N)cc2)c1` (stereo not shown) [Example 51, 2-(4′-Cyano-5-fluoro-biphenyl-3-yl)-3,3-dimethyl-1,2,3,4-tetrahydro-quinoline-6-carboxylic acid], the E30 is reported as 1.42.
